From patent EP4782450A1, “NOVEL SKELETAL DERIVATIVE EFFECTIVE FOR HER2 MUTATION, AND PHARMACEUTICAL COMPOSITION COMPRISING SAME” (Hanmi Pharm. Co., Ltd., priority 2023, dated 2025) come the findings set out here.

One assay concerns Ba/F3 HER2 A775insYVMA. As to the kind of experiment: Growth inhibition of Ba/F3 cells engineered to overexpress HER2 A775_G776insYVMA (CellTiter-Glo luminescence). The format is cell-based. The following applies: Mus musculus, BaF3, 72 hours, concentrations 1000 to 0.32 nM, read-out: Ba/F3 HER2^YVMA GI50 class. On the procedure:
(§1) Experimental Example: Growth inhibition of Ba/F3 HER2 A775insYVMA and wild-type Ba/F3 cells
(§2) In this Experimental Example, the compounds obtained in Examples 1 to 92 were evaluated for their ability to inhibit growth of cells harboring either the HER2 A775insYVMA mutation or wild-type EGFR. For this purpose, Ba/F3 cells (ATCC, USA) were genetically engineered to overexpress either HER2 A775_G776insYVMA or wild-type EGFR, and the growth of these engineered Ba/F3 cells were monitored in the presence of the compounds described in the Examples to evaluate their effects on growth inhibition.
(§3) Specifically, culture flasks of the engineered Ba/F3 cells suspended in RPMI 1640 medium supplemented with 10% fetal bovine serum (FBS) and 1% penicillin/streptomycin (Gibco BRL, USA) were placed in a cell incubator and incubated at 37°C and 5% CO2 level to allow them to reach a stable logarithmic growth phase. The cells were then harvested by centrifugation to remove the old media and placed into a 96-well plate by dividing them into 100 µL aliquots per well at a dilution of 1×10^5 cells/mL in fresh media. Each of the compounds prepared in the preceding Examples were dissolved in 99.5% (cell culture grade) dimethylsulfoxide (DMSO) to prepare a stock solution of 10 mM concentration, which were serially diluted in the culture medium to final concentrations of 1000, 200, 40, 8, 1.6 and 0.32 nM for HER2 A775insYVMA Ba/F3 cells and concentrations of 10000, 5000, 1000, 200, 40 and 8 nM for wild-type EGFR overexpressing Ba/F3 cells.
(§4) To each aliquot of cells in the 96-well plate, a 50 µL test solution comprising one of the compounds was added to result in each well a 150 µL volume of cells with a compound in a final concentration ranging from 10 µM to 0.32 nM. The Ba/F3 cells treated with the test solution were incubated for 72 hours at 37°C and 5% CO2 level and underwent a 30-minute acclimation by placing the 96-well plate carrying the cells in ambient temperature. Thereafter, to each well was added 50 µL CellTiter-Glo® Luminescent Cell Assay Reagent (CTG, Promega, USA). After allowing 10 minutes to stabilize the signal, luminescence intensity was measured using a microplate reader. The half-maximal growth inhibition concentration (GI50) was calculated from the luminescence readout of the test compounds with the difference between the initial and final cell densities for the well untreated with a compound set at 100% growth. Nonlinear regression analysis based on log[inhibitor] vs. normalized response mode of the Graph Prism software was used for calculating GI50 for each compound, which are summarized in Table 6. The calculated GI50 values are classified in Table 6 into four categories: A for GI50 values less than 100 nM, B for GI50 values more than 100 nM but less than 1,000 nM, C for GI50 values more than 1,000 nM but less than 5,000 nM, and D for GI50 values of more than 5,000 nM.

Assay [1] has as its system wild-type EGFR overexpressing Ba/F3 cells. In words: Growth inhibition of Ba/F3 cells engineered to overexpress wild-type EGFR (CellTiter-Glo luminescence). The format is cell-based. As to conditions: Mus musculus, BaF3, 72 hours, concentrations 10000 to 8 nM, read-out: Ba/F3 EGFR^WT GI50 class. On the procedure:
as §1, §2, §3, §4
Background: ATP-based viability assays read luminescence as a measure of living cells.

Turning to `C=CC(=O)N(C)CCOc1ccc2ncnc(Nc3ccc(Oc4ccn5ncnc5c4)c(C)c3)c2c1` [Example 1, N-(2-((4-((4-([1,2,4]triazolo[1,5-a]pyridin-7-yloxy)-3-methylphenyl)amino)quinazolin-6-yl)oxy)ethyl)-N-methylacrylamide], the GI50 was below 0.1 µM with Ba/F3 HER2 A775insYVMA and 0.1 to 1 µM in assay [1].
As for `C=CC(=O)N(C)CCOc1cc2c(Nc3ccc(Oc4ccn5ncnc5c4)c(C)c3)ncnc2cc1OC` [Example 2, N-(2-((4-((4-([1,2,4]triazolo[1,5-a]pyridin-7-yloxy)-3-methylphenyl)amino)-7-methoxyquinazolin-6-yl)oxy)ethyl)-N-methylacrylamide], the GI50 in the assay with Ba/F3 HER2 A775insYVMA was below 0.1 µM; in assay [1], 0.1 to 1 µM.
Regarding `C=CC(=O)N(C)CCOc1ccc2ncnc(Nc3ccc(Oc4ccn5ncnc5c4)c(C)c3)c2n1` [Example 3, N-(2-((4-((4-([1,2,4]triazolo[1,5-a]pyridin-7-yloxy)-3-methylphenyl)amino)pyrido[3,2-d]pyrimidin-6-yl)oxy)ethyl)-N-methylacrylamide], the GI50 is below 0.1 µM with Ba/F3 HER2 A775insYVMA and 0.1 to 1 µM in assay [1].
On the same counts, the results for `C=CC(=O)N(C)CCOc1ccc2ncnc(Nc3ccc(Oc4ccc5c(c4)ncn5C)c(C)c3)c2c1` [Example 5, N-methyl-N-(2-((4-((3-methyl-4-((1-methyl-1H-benzo[d]imidazol-5-yl)oxy)phenyl)amino)quinazolin-6-yl)oxy)ethyl)acrylamide] are below 0.1 µM and above 5 µM.
For the compound `C=CC(=O)N(C)CCOc1ccc2ncnc(Nc3ccc(Oc4ccc5c(c4)ncn5C)c(C)c3)c2n1` [Example 6, N-methyl-N-(2-((4-((3-methyl-4-((1-methyl-1H-benzo[d]imidazol-5-yl)oxy)phenyl)amino)pyrido[3,2-d]pyrimidin-6-yl)oxy)ethyl)acrylamide], the GI50 with Ba/F3 HER2 A775insYVMA is below 0.1 µM; in assay [1], above 5 µM.
Consider `C=CC(=O)NCCOc1ccc2ncnc(Nc3ccc(Oc4ccc5c(c4)ncn5C)c(C)c3)c2n1` [Example 7, N-(2-((4-((3-methyl-4-((1-methyl-1H-benzo[d]imidazol-5-yl)oxy)phenyl)amino)pyrido[3,2-d]pyrimidin-6-yl)oxy)ethyl)acrylamide], for which the GI50 in the assay with Ba/F3 HER2 A775insYVMA was 0.1 to 1 µM; in assay [1], above 5 µM.
As to `C=CC(=O)N(C)CCOc1ncc2ncnc(Nc3ccc(Oc4ccc5c(c4)ncn5C)c(C)c3)c2n1` [Example 8, N-methyl-N-(2-((8-((3-methyl-4-((1-methyl-1H-benzo[d]imidazol-5-yl)oxy)phenyl)amino)pyrimido[5,4-d]pyrimidin-2-yl)oxy)ethyl)acrylamide], the GI50 in the assay on Ba/F3 HER2 A775insYVMA is 0.1 to 1 µM; in assay [1], 1 to 5 µM.
On the same counts, the results for `C=CC(=O)N(C)CCCOc1ccc2ncnc(Nc3ccc(Oc4ccc5c(c4)ncn5C)c(C)c3)c2n1` [Example 9, N-methyl-N-(3-((4-((3-methyl-4-((1-methyl-1H-benzo[d]imidazol-5-yl)oxy)phenyl)amino)pyrido[3,2-d]pyrimidin-6-yl)oxy)propyl)acrylamide] are 0.1 to 1 µM and above 5 µM.
In the case of `C=CC(=O)NCCOc1ccc2ncnc(Nc3ccc(Oc4ccc5c(c4)ncn5C)c(C)c3)c2c1` [Example 10, N-(2-((4-((3-methyl-4-((1-methyl-1H-benzo[d]imidazol-5-yl)oxy)phenyl)amino)quinazolin-6-yl)oxy)ethyl)acrylamide], the GI50 was below 0.1 µM in the assay on Ba/F3 HER2 A775insYVMA and 1 to 5 µM in assay [1].
`C=CC(=O)N(C)CCNc1ncc2ncnc(Nc3ccc(Oc4ccn5ncnc5c4)c(C)c3)c2n1` [Example 12, N-(2-((8-((4-([1,2,4]triazolo[1,5-a]pyridin-7-yloxy)-3-methylphenyl)amino)pyrimido[5,4-d]pyrimidin-2-yl)amino)ethyl)-N-methylacrylamide]: the GI50 (in the assay on Ba/F3 HER2 A775insYVMA; in assay [1]) was 1 to 5 µM in each case.
